Test results: publication PMC6072878, “Brasilianoids A–F, New Meroterpenoids From the Sponge-Associated Fungus Penicillium brasilianum” (Frontiers in Chemistry, 2018)
Like-named read-outs stand apart in the source and are kept apart here.

How the values were obtained:
[1] = system: HaCaT cells; test: Protection against UVB-induced cell damage in HaCaT cells (MTT assay); format: cell-based; conditions: Homo sapiens, HaCaT, light or radiation study, 24 h, read-out: cell viability after UVB irradiation
Procedure: HaCaT cells were seeded at 5 × 10^5 cells per well in 6-well plates and incubated under starvation conditions for 24 h using serum-free MEM. HaCaT cells were exposed to UVB irradiation (UVB lamp: SUV-1000, Sigma-China) at a dose of 30 mJ/cm^2. After UVB irradiation, DMEM medium containing 1 (20 μM) or epigallocatechin gallate (20 μM) was added and the cells were incubated for 24 h, and then the MTT assay was performed.

[2] = Cytotoxic activity toward tumor cell line U937; format: cell-based; conditions: human, U937 tumor cells
[3] = system: filaggrin; test: Expression of filaggrin in HaCaT cells (qRT-PCR); format: cell-based; conditions: HaCaT cells, 20, 10, 5 μM, 72 h, dose dependent
Procedure: (§1) HaCaT cells were cultured with DMEM in 6-well plate at 1 × 10^5 cells/well for 24 h, then treated with 20, 10, 5 μM of compounds 1–7 for 72 h. Total RNA of HaCaT cells were extracted using RNA Miniprep kit (Biomiga) according to the manufacturer's instruction. Then total RNA was reverse transcribed using PrimeScript RT reagent Kit (Takara, Dalian, China). PCR amplification was performed on an StepOne Plus real time PCR system (Applied Biosystems, Foster City, CA) using the SYBR Green Master Mix (Applied Biosystems, Foster City, CA). All experiments were performed in triplicate, and the relative levels of assayed mRNAs were calculated with the delta–delta CT method using ACTIN expressions as endogenous control, and normalized to non-treated control. […]
(§2) delta‒delta CT method using lamivudine expressions as positive control, and normalized to non-treated control.
(§3) 9. Assay for protective effects on skin barrier functions in in vitro
(§4) HaCaT cells were cultured with DMEM in 6-well plate at 1×10^5 cells/well for 24 h, then treated with 20, 10, 5 µM of compounds 1‒8 for 72 h. […]
(§5) All experiments were performed in triplicate, and the relative levels of assayed mRNAs were calculated with the delta‒delta CT method using ACTIN expressions as endogenous control, and normalized to non-treated control.

[4] = system: caspase-14; test: Expression of caspase-14 in HaCaT cells (qRT-PCR); format: cell-based; conditions: HaCaT cells, 20, 10, 5 μM, 72 h, dose dependent
Procedure: as §1, §2, §3, §4, §5

[5] = Cell viability of RAW264.7 macrophages (MTT method); format: cell-based, mouse; conditions: mouse
Procedure: (§6) 7. Assay for inhibition toward nitric oxide production in RAW264.7 macrophages The experiment was conducted according to a literature procedure.1 Murine monocytic RAW264.7 cells grown in 96-well cell culture plates (2 × 10^5 cells/well) and pretreated with serial concentrations of the compounds 1‒8 for 30 min, followed by stimulation with LPS (1 μg/mL) under a humidified atmosphere with 5% CO2 at 37°C. After 24 h, the NO production of the supernatant was determined by adding the 100 μL of Griess reagent. Subsequently, the MTT
(§7) [3-(4,5-dimethylthiazol-2-yl)-2,5-diphenyltetrazolium bromide] reduction2 was used to evaluate the cell viability, and results were expressed as the mean value of triplicate determinations. The positive control was aminoguanidine.2 […]

[6] = Cytotoxic activity toward tumor cell line SMMC7721; format: cell-based; conditions: human, SMMC7721 tumor cells
[7] = system: NO production in LPS-induced RAW 264.7 macrophages; test: Inhibition of LPS induced NO production in RAW264.7 macrophages (Griess reagent); format: cell-based, mouse
Procedure: All compounds were assayed by measuring the inhibitory effects on NO production induced by LPS in mouse macrophage RAW 264.7 cells. The RAW 264.7 cells were seeded in each well of a 96-well plate at a concentration of 5 × 10^5 cells/ml in DMEM medium containing 10% fetal bovine serum, 2 mmol/l glutamine, 100 U/ml penicillin, and 100 μg/ml streptomycin. After incubation at 37°C in a humidified atmosphere of 5% CO2 air for 12 h, cells were treated with LPS (1 μg/ml) and compounds ([…], and compound was dissolved in DMSO to dilute until the final DMSO concentration <0.1%, v/v), then incubation for 24 h at 37°C. NO production was determined by measuring the quantity of nitrite in the culture medium by the Griess reagent. Aminoguanidine was selected as a positive control. A 50 μl of the supernatant of culture medium was mixed with 100 μl of the Griess reagent. Using nitrite to generate a standard curve, nitrite production was measured by a microplate reader at 540 nm. Cell viability was examined by the MTT method (Wu et al., [2016]). The compounds with inhibitory rate more than 50% at a dose of 50 μg/ml were further detected in the gradient concentrations to calculate IC50 values. […]
as §6, §7

[8] = Cytotoxic activity toward tumor cell line A549; format: cell-based; conditions: human, A549 tumor cells
[9] = system: RAW264.7 macrophages; test: Cell viability of RAW264.7 macrophages (MTT method); format: cell-based, mouse; conditions: RAW264.7, MTT; Table 3; read-out: CC50 (μM) Cytotoxicity
Procedure: as §6, §7

[10] = system: HBV virus in HepG2.2.15 cells; test: In vitro anti-HBV effects (HBV DNA, real time PCR); format: cell-based; conditions: 10 μM
Procedure: HepAD38 cells were cultured with DMEM in 48-well plate at 1 × 10^5 cells/well for 24 h, then treated with 10 μM of each compound for 72 h. After 4 days, the cells were washed with precooled PBS for 2 times. HBV progeny DNA of HepAD38 cells were extracted using QIAamp DNA Blood Mini kit (Biomiga) according to the manufacturer's instruction. Total DNA was reversely transcribed using PrimeScript RT reagent Kit (Takara, Dalian, China). PCR amplification was performed on an StepOne Plus real time PCR system (Applied Biosystems, Foster City, CA) using the SYBR Green Master Mix (Applied Biosystems, Foster City, CA). All experiments were performed in triplicate, and the relative levels of assayed HBV DNA were calculated with the delta–delta CT method using lamivudine as a positive control, and normalized to non-treated control. […]
8. Assay for in vitro anti-HBV effects
HepG2. 2. 15 cells were cultured with DMEM in 48-well plate at 1×10^5 cells/well for 24 h, then treated with 10 µM of compounds for 72 h. At d 4, these cells were washed 2 times with precooled PBS, and treated with 10 µM of compounds for 72 h.
HBV progeny DNA of HepG2. 2. 15 cells were extracted using QIAamp DNA Blood Mini kit (Biomiga) according to the manufacturer's instruction. Then total DNA was reverse transcribed using PrimeScript RT reagent Kit (Takara, Dalian, China). The primers were designed and synthesized by Takara, and the sequences of the primers […]
PCR amplification was performed on an StepOne Plus real time PCR system (Applied Biosystems, Foster City, CA) using the SYBR Green Master Mix (Applied Biosystems, Foster City, CA). All experiments were performed in triplicate, and the relative levels of assayed HBV DNA were calculated with the […]
delta‒delta CT method using lamivudine expressions as positive control, and normalized to non-treated control. […]
(Takara, Dalian, China). The primers were designed and synthesized by Takara, the […]
performed on an StepOne Plus real time PCR system (Applied Biosystems, Foster City, CA) using the SYBR Green Master Mix (Applied Biosystems, Foster City, CA). […]

SMILES	viability at 20 µM [1] [%]	IC50 [2] [µM]	expression of filaggrin [3]	expression of caspase-14 [4]	CC50 at 24 h ([5]; RAW264.7, MTT, Table 3, read-out: CC50 (μM) Cytotoxicity) [µM]	CC50 at 24 h ([5]; Table S9 of the supplement, read-out: CC50 (M), 50% cytotoxic concentration) [µM]	IC50 [6] [µM]	IC50 ([7]; Mus musculus, RAW264.7, read-out: IC50 (M), 50% inhibitory concentration) [M]	IC50 [8] [µM]	CC50 [9] [µM]	inhibitory rate of DNA expression of the HBV virus [10] [%]	NO inhibition % (50 μM) ([7]; 50 μM, LPS 1 μg/ml, 24 h) [%]	IC50 ([7]; LPS 1 μg/ml, 24 h, Table 3, read-out: IC50 (μM) NO) [M]	inhibition toward NO production (in words) ([7]; LPS-induced RAW 264.7 macrophages)
C=C1[C@@]2(C)C[C@H]3[C@]4(C)[C@H](O)[C@@H]5C[C@@](C)(OC5=O)[C@H]4CC[C@]3(C)[C@]1(C(=O)OC)C(=O)[C@@](C)(O)C2=O [Compound 1, methyl (1R, 2S, 5R, 5aS, 7aS, 8R, 10S, 12R, 13aR, 13bS)-1, 10-dihydroxy-5,7a,10,12,13b-pentamethyl-14-methylene-3,9,11-trioxotetradecahydro-2,5:8,12-dimethanocycloocta[3,4]benzo[1,2-c]oxepine-8(5H)-carboxylate]	77	> 10	significantly stimulated	significantly stimulated	> 100	> 50	> 10	> 5e-05	> 10	–	–	–	–	–
C=C1C2(C)CC3C4(C)C=CC(=O)OC(C)(C)C4CCC3(C)C13C(=O)OC(C)C3(O)C2=O [Compound 3, (5aS, 5bS, 7R, 8aR, 9R, 11aR, 11bS, 13aS)-8a-hydroxy-1,1,5a, 7,9,11b-hexamethyl-14-methylene-5a,5b,6,7,8a,9,11b,12,13,13a-decahydro-1H,11H-7, 11a-methanofuro[3″,4″:3′,4′]cyclohepta[1′,2′:3,4]benzo[1,2-c]oxepine-3,8,11-trione]	–	–	–	–	–	–	–	–	–	> 100	25	65	3.38e-05 ± 3.13e-06	moderate inhibition
